Assays:
mouse IL-31 gene = assay: IL-31 production inhibitory action: IL-31 gene expression by real-time PCR in antigen-stimulated CD4+ T cells from Dock8−/− AND Tg mice; type: cell-based; settings: for IL-31 production inhibitory action (in words, discussion of Table 1): relative to compound 1; for activity at 0.312 µM / activity at 0.625 µM / activity at 1.25 µM / activity at 2.5 µM / activity at 0.078 µM / activity at 0.156 µM: Mus musculus, CD4+ T, 24 h, read-out: qPCR results (IL-31 production (%)): based on the case using 0.1% DMSO taken as 100%
CD4+ T cells = assay: T cell proliferation assay (PMA and ionomycin, 3H-thymidine incorporation); type: cell-based, mouse; settings: Mus musculus, CD4+ T, 66 h, read-out: Cell proliferation (%): based on the case using 0.2% DMSO taken as 100%
Protocol: (§1) A T cell proliferation assay was performed by culturing CD4^+ T cells (5×10^4 cells) with T cell-depleted irradiated spleen cells (1×10^6 cells) in the presence of phorbol 12-myristate 13-acetate (PMA: 100 ng/ml; Sigma-Aldrich) and ionomycin (1 μg/ml; Sigma-Aldrich) for 66 hours. For the last 18 hours of culture, ^3H-thymidine (0.037 MBq) was added, and the incorporated radioactivity was measured with MicroBeta^2 (PerkinElmer, Inc., Waltham, MS).
as §1, with “hours. Test compounds were added at various final concentrations at the start of culture.” for “hours.”, “MS). […]” for “MS).”

Row | SMILES | IL-31 production inhibitory action (in words, discussion of Table 1) (mouse IL-31 gene) | activity at 0.312 µM (mouse IL-31 gene) | activity at 0.625 µM (mouse IL-31 gene) | activity at 1.25 µM (mouse IL-31 gene) | activity at 2.5 µM (mouse IL-31 gene) | activity at 5 µM (CD4+ T cells) | activity at 10 µM (CD4+ T cells) | activity at 20 µM (CD4+ T cells) | activity at 40 µM (CD4+ T cells) | activity at 0.078 µM (mouse IL-31 gene) | activity at 0.156 µM (mouse IL-31 gene)
1 | CC(C)(C)c1ccc(/C=N/Nc2ccc(C(=O)O)cc2)cc1 [Compound 2, 4-(2-(4-(tert-Butyl)benzylidene)hydrazinyl)benzoic Acid] | maintained | – | – | – | – | – | – | – | – | – | –
2 | CN(C)c1ccc(/C=N/Nc2ccc(C(=O)O)cc2)cc1 [Compound 3, 4-(2-(4-(Dimethylamino)benzylidene)hydrazinyl)benzoic Acid] | maintained | – | – | – | – | – | – | – | – | – | –
3 | CN(C)c1ccc(-c2cnc(-c3ccc(C(=O)O)cc3)o2)cc1 [Compound 19, 4-(5-(4-(Dimethylamino)phenyl)oxazol-2-yl)benzoic Acid] | – | 67.6% | 69.9% | 54.5% | 16.9% | 86.3% | 79.4% | 66% | 67.4% | – | –
4 | O=C(O)c1ccc(-c2cnc(-c3cc(C(F)(F)F)ccc3Cl)o2)cc1 [Compound 20, 4-(2-(2-Chloro-5-(trifluoromethyl)phenyl)oxazol-5-yl)benzoic Acid] | – | 23.3% | 24.7% | 22.1% | 32.6% | – | 91.2% | 87.5% | 86.7% | 16.9% | 17.7%
5 | O=C(O)c1ccc(-c2cc(-c3cc(C(F)(F)F)ccc3Cl)no2)cc1 [Compound 21, 4-(3-(2-Chloro-5-(trifluoromethyl)phenyl)isoxazol-5-yl)benzoic Acid] | – | 25.3% | 23% | 38.2% | 13.1% | – | 95.5% | 98.2% | 106% | 23.7% | 29.9%
6 | O=C(O)c1ccc(-c2cn(-c3cc(C(F)(F)F)ccc3Cl)nn2)cc1 [Compound 23, 4-(1-(2-Chloro-5-(trifluoromethyl)phenyl)-1H-1,2,3-triazol-4-yl)benzoic Acid] | – | 46.4% | 31.4% | 22.7% | – | 110% | 92.9% | 88.5% | 68.9% | – | 32.5%
7 | O=C(O)c1ccc(-c2cn(-c3cc(C(F)(F)F)ccc3F)nn2)cc1 [Compound 24, 4-(1-(2-Fluoro-5-(trifluoromethyl)phenyl)-1H-1,2,3-triazol-4-yl)benzoic Acid] | – | 18.1% | 32% | 31.5% | – | 88.1% | 81.5% | 71.3% | 62.9% | – | 31.2%
8 | O=C(O)c1ccc(-c2nc(-c3cc(C(F)(F)F)ccc3Cl)n[nH]2)cc1 [Compound 25, 4-(3-(2-Chloro-5-(trifluoromethyl)phenyl)-1H-1,2,4-triazol-5-yl)benzoic Acid] | – | 82.7% | 85.6% | 72.2% | 81.9% | – | 82.9% | 81.3% | 80.5% | – | –
9 | CC(C)c1ccc(-c2cnc(-c3ccc(C(=O)O)cc3)[nH]2)cc1 [Compound 26, 4-(5-(4-Isopropylphenyl)-1H-imidazol-2-yl)benzoic Acid] | – | – | 45.1% | 26.2% | – | – | 77.1% | 70.6% | 64.6% | – | –
10 | O=C(O)c1ccc(-c2ncc(-c3cc(C(F)(F)F)ccc3Cl)[nH]2)cc1 [Compound 27, 4-(5-(2-Chloro-5-(trifluoromethyl)phenyl)-1H-imidazol-2-yl)benzoic Acid] | – | 39.6% | 43.1% | 46.8% | – | 86.2% | 78% | 70% | – | 28.6% | 35.1%
11 | CC(C)c1ccc(-c2cc(-c3ccc(C(=O)O)cc3)n[nH]2)cc1 [Compound 28, 4-(5-(4-Isopropylphenyl)-1H-pyrazol-3-yl)benzoic Acid] | – | 70.6% | 42.6% | 28% | – | – | 99.9% | 89.5% | 69.1% | – | 73.2%
12 | O=C(O)c1ccc(-c2cc(-c3cc(C(F)(F)F)ccc3Cl)[nH]n2)cc1 [Compound 29, 4-(5-(2-Chloro-5-(trifluoromethyl)phenyl)-1H-pyrazol-3-yl)benzoic Acid] | – | 52.3% | 61.9% | 40.7% | 63.6% | – | 88.6% | 77.7% | 86% | – | 59.1%
13 | O=C(O)c1ccc(-n2ccc(-c3cc(C(F)(F)F)ccc3Cl)n2)cc1 [Compound 30, 4-(3-(2-Chloro-5-(trifluoromethyl)phenyl)-1H-pyrazol-1-yl)benzoic Acid] | – | 29.4% | 23.4% | 26.1% | 30.9% | – | 98.3% | 90.3% | 76.4% | 41.5% | 39.9%
14 | CC(C)c1ccc(-c2nnc(-c3ccc(C(=O)O)cc3)o2)cc1 [Compound 31, 4-(5-(4-Isopropylphenyl)-1,3,4-oxadiazol-2-yl)benzoic Acid] | – | – | 53.6% | 24% | – | – | 97.5% | 79.3% | 65.6% | – | –
15 | O=C(O)c1ccc(-c2nnc(-c3cc(C(F)(F)F)ccc3Cl)o2)cc1 [Compound 32, 4-(5-(2-Chloro-5-(trifluoromethyl)phenyl)-1,3,4-oxadiazol-2-yl)benzoic Acid] | – | 52.1% | 39.9% | 53.5% | – | – | 115% | 92.7% | 91.8% | – | 35.5%
16 | O=C(O)c1ccc(-c2nc(-c3cc(C(F)(F)F)ccc3Cl)no2)cc1 [Compound 33, 4-(3-(2-Chloro-5-(trifluoromethyl)phenyl)-1,2,4-oxadiazol-5-yl)benzoic Acid] | – | 37.9% | 25.1% | 28% | 29.7% | – | 73.5% | 66.7% | 64.3% | 57.7% | 48.9%
17 | CN(C)c1ccc(/C=N/Nc2ccc(C(=O)O)cc2)c(O)c1 [Negative control compound 2, 4-(2-(4-(Dimethylamino)-2-hydroxybenzylidene)hydrazineyl)benzoic Acid, reference compound] | tended to notably decrease | – | – | – | – | – | – | – | – | – | –
18 | CN(CC(O)CO)c1ccc(/C=N/Nc2ccc(C(=O)O)cc2)cc1 (stereo not shown) [Negative control compound 3, 4-(2-(4-((2,3-Dihydroxypropyl)(methyl)amino)benzylidene)hydrazineyl)benzoic Acid, reference compound] | tended to notably decrease | – | – | – | – | – | – | – | – | – | –
19 | CC(C)c1ccc(/C=N/Nc2cccc(C(=O)O)c2)cc1 [Negative control compound 4, 3-(2-(4-Isopropylbenzylidene)hydrazineyl)benzoic Acid, reference compound] | completely lost | – | – | – | – | – | – | – | – | – | –
20 | CC(C)c1ccc(/C=N/Nc2ccccc2C(=O)O)cc1 [Negative control compound 5, 2-(2-(4-Isopropylbenzylidene)hydrazineyl)benzoic Acid, reference compound] | completely lost | – | – | – | – | – | – | – | – | – | –
21 | CC(C)c1ccc(/C=N/Nc2ccccc2)cc1 [Negative control compound 6, 1-(4-Isopropylbenzylidene)-2-phenylhydrazine, reference compound] | completely lost | – | – | – | – | – | – | – | – | – | –
22 | O=C(O)c1ccc(N/N=C/C2CCCCC2)cc1 [Negative control compound 7, 4-(2-(Cyclohexylmethylene)hydrazinyl)benzoic Acid, reference compound] | completely lost | – | – | – | – | – | – | – | – | – | –

Source: patent US20240139214A1, “AGENT FOR SUPPRESSING IL-31 PRODUCTION AND PHARMACEUTICAL COMPOSITION CONTAINING THE SAME” (KYUSHU UNIVERSITY, NATIONAL UNIVERSITY CORPORATION, priority 2021, published 2024)
